Test results published in patent US9611254B2, “Triazole compounds and their use as gamma secretase modulators” (Acturum Life Science AB, priority 2013, dated 2017).

Assays:
Aβ42 [1] = test: HEK assay: Aβ42 secreted by HEK cells stably expressing APPswe (Meso Scale electrochemiluminescence); assay type: cell-based, Human; settings: 4-6 hours incubation with compound, Aβ42 in cell medium; for IC50: Homo sapiens, HEK293, HEK cell line stably expressing APPswe, read-out: pIC50 Aβ42 HEK assay (converted)
Experimental: Compounds were diluted in 100% DMSO and stored at […] prior to use. Human Embryonic Kidney (HEK) cell line stably expressing APP with the Swedish mutation (APPswe) was cultured using Dulbecco's Modified Eagles medium (DMEM) supplied with […] glucose, Na-pyruvate and GlutaMAX, 10% Foetal bovine serum, 100 U/mL penicillin-streptomycin (PEST), 1× non-essential amino acids (NEAA), […] Hepes, 100 μg/mL Zeocine. Cells at about 80% confluence were washed with PBS, detached from culture flasks using 1× Trypsin/EDTA diluted in PBS, re-suspended in cell media and plated in 384-well poly-d-lysine coated cell culture plates at about 10000-15000 cells/well, in 25 μL cell media. Optionally, cryo-preserved cells (frozen and stored at −140° C. in 90% cell media and 10% DMSO) were thawed, washed and plated as above. Next the cells were incubated for 15-24 h at 37° C. and 5% CO2, after which cell medium was changed. Fresh medium containing test compound diluted ×200 from prepared compound plate was added to the cells before further incubation for 4-6 hours at 37° C. and 5% CO2. After incubation with test compound the amount of Aβ peptides, including Aβ42, Aβ40, Aβ39, Aβ38 and Aβ37, secreted to cell medium was analyzed using the electrochemiluminescence assay technology from Meso Scale Discovery Technology, in combination with specific antibodies raised against the different Aβ peptides. Potential cytotoxic effects of the compounds were assayed by measuring the ATP content (ViaLight) from cell lysate.

Aβ42 [2] = test: PCN assay: Aβ42 secreted by mouse primary cortical neuronal cells (ELISA); assay type: cell-based; settings: primary cortical neuronal cells from 16-day mouse embryos, 16-20 hours incubation with compound, Aβ42 in cell medium; for IC50: Mus musculus, read-out: pIC50 Aβ42 PCN assay (converted)
Experimental: Compounds were diluted in 100% DMSO and stored at […] prior to use. Primary cortical neuronal cells (PCN) were isolated from 16-day mouse embryos and cultured in Ham's F12 media containing 10% Foetal bovine serum, 10 mM Hepes, 2 mM L-glutamine and 100 U/mL Penicillin-Streptomycin. 150000-250000 cells/well, in 200 μL cell media were seeded onto 96-well poly-D-Lysine coated plates. After incubation at 37° C., 5% CO2 for five days, the media was exchanged for fresh medium containing test compound diluted ×100, before further incubation for 16-20 hours at 37° C. and 5% CO2. After incubation with test compound the amount of Aβ42 peptides secreted to cell medium was analyzed using the solid phase sandwich Enzyme-Linked-Immuno-Sorbent Assay (ELISA)-kit from Invitrogen for detection of mouse βAmyloid 1-42. Potential cytotoxic effects of the compounds were assayed by measuring the ATP content (Via Light) from cell lysate.

IC50 (Aβ42 [1]) | pIC50 Aβ42 HEK assay (Aβ42 [1]; HEK cell line stably expressing APPswe) | SMILES | IC50 (Aβ42 [2]) | pIC50 Aβ42 PCN assay (Aβ42 [2])
25.1 nM |  | COc1cc(Nc2nc(N3CCC3c3ccccc3)n(CC(C)(C)O)n2)ccc1-n1cnc(C)c1 (racemic) [Example 5, 1-(3-(3-Methoxy-4-(4-methyl-1H-imidazol-1-yl)phenylamino)-5-(2-phenylazetidin-1-yl)-1H-1,2,4-triazol-1-yl)-2-methylpropan-2-ol] | 31.6 nM | 
39.8 nM |  | COc1cc(Nc2nc(N3CC(c4ccccc4)C3)n(CC(C)(C)O)n2)ccc1-n1cnc(C)c1 [Example 1, 1-(3-(3-Methoxy-4-(4-methyl-1H-imidazol-1-yl)phenylamino)-5-(3-phenylazetidin-1-yl)-1H-1,2,4-triazol-1-yl)-2-methylpropan-2-ol] | 15.8 nM | 
39.8 nM |  | COc1cc(Nc2nc(N3CC(c4ccccc4)C3)n(C)n2)ccc1-n1cnc(C)c1 [Example 3, N-(3-Methoxy-4-(4-methyl-1H-imidazol-1-yl)phenyl)-1-methyl-5-(3-phenylazetidin-1-yl)-1H-1,2,4-triazol-3-amine] | 79.4 nM | 
25.1 nM |  | COc1cc(Nc2nc(N3CCC3c3ccccc3)n(C)n2)ccc1-n1cnc(C)c1 (stereo not drawn) [Example 4, N-(3-Methoxy-4-(4-methyl-1H-imidazol-1-yl)phenyl)-1-methyl-5-(2-phenylazetidin-1-yl)-1H-1,2,4-triazol-3-amine] | 25.1 nM | 

Second part, the compound before the results:

SMILES | IC50 (Aβ42 [1]) | pIC50 Aβ42 HEK assay (Aβ42 [1]; HEK cell line stably expressing APPswe) | IC50 (Aβ42 [2]) | pIC50 Aβ42 PCN assay (Aβ42 [2])
COc1cc(Nc2nc(N3CCC3c3ccccc3)n(CC(C)(C)O)n2)ccc1-n1cnc(C)c1 (single isomer, unassigned; isomer 1) [Example 6, 1-(3-(3-Methoxy-4-(4-methyl-1H-imidazol-1-yl)phenylamino)-5-(2-phenylazetidin-1-yl)-1H-1,2,4-triazol-1-yl)-2-methylpropan-2-ol, isomer 1] | 25.1 nM |  |  | 7.2
COc1cc(Nc2nc(N3CCC3c3ccccc3)n(CC(C)(C)O)n2)ccc1-n1cnc(C)c1 (single isomer, unassigned; isomer 2) [Example 7, 1-(3-(3-Methoxy-4-(4-methyl-1H-imidazol-1-yl)phenylamino)-5-(2-phenylazetidin-1-yl)-1H-1,2,4-triazol-1-yl)-2-methylpropan-2-ol, isomer 2] |  | 7.8 |  | 7.7
COc1cc(Nc2nc(N3CC(F)(c4ccccc4)C3)n(CC(C)(C)O)n2)ccc1-n1cnc(C)c1 [Example 2, 1-(5-(3-Fluoro-3-phenylazetidin-1-yl)-3-(3-methoxy-4-(4-methyl-1H-imidazol-1-yl)phenylamino)-1H-1,2,4-triazol-1-yl)-2-methylpropan-2-ol] | 50.1 nM |  | 31.6 nM | 
COc1cc(Nc2nc(N3CC4(CCC4)C3)n(CC(C)(C)O)n2)ccc1-n1cnc(C)c1 [Example 8, 1-(3-(3-Methoxy-4-(4-methyl-1H-imidazol-1-yl)phenylamino)-5-(2-azaspiro[3.3]heptan-2-yl)-1H-1,2,4-triazol-1-yl)-2-methylpropan-2-ol] | 50.1 nM |  | 63.1 nM | 
COc1cc(Nc2nc(N3CCC34CCCC4)n(CC(C)(C)O)n2)ccc1-n1cnc(C)c1 [Example 9, 1-(3-(3-Methoxy-4-(4-methyl-1H-imidazol-1-yl)phenylamino)-5-(1-azaspiro[3.4]octan-1-yl)-1H-1,2,4-triazol-1-yl)-2-methylpropan-2-ol] | 31.6 nM |  | 31.6 nM | 
